Assay results taken from PMC12575728, “Galactose-modified small molecule modulator targets RORα to enhance circadian rhythm and alleviate periodontitis-associated alveolar bone loss” (Bone Research, 2025).

Legend:
[1] = system: periodontitis mice with circadian rhythm disorders; assay: Ligature-induced periodontitis in circadian rhythm disordered (jet lag) mice; type: in vivo; conditions: for periodontal tissue destruction (HE staining): compared to DMSO-treated controls; for rhythmic expression of circadian genes in periodontal tissue: jet lag mice, 10 mg/kg IP daily for three weeks; for alveolar bone resorption (Micro-CT): jet lag periodontitis mice, 10 mg/kg IP daily, compared to DMSO; for IL-10-positive cell populations / NF-κB pathway mediators Tnf-α and Il-6: periodontal tissue; for TRAP-positive cell numbers (osteoclastic activity): relative to DMSO-treated periodontitis controls
From the text: Periodontitis has the highest incidence rate among all oral diseases and is a major cause of adult tooth loss. […] It is also reported that the inflammatory signaling pathways in periodontal tissue is over activated in periodontitis mice with circadian rhythm disorder.[40] Given this, we have substantial grounds to hypothesize that the restoration of circadian rhythms could potentially ameliorate periodontitis. According to our assumption, periodontal inflammation in circadian rhythm-disordered mice is more critical than in control mice under L:D conditions, resulting in a more severe alveolar bone resorption. Administration of Gala-SR and SR1078 is expected to restore the circadian rhythm, thereby alleviating the inflammation and reducing the alveolar bone absorption (Fig. 6a). […] The mice were initially subjected to a one-week L:D feeding regimen, followed by exposure to disordered conditions for four weeks. At the beginning of the third week, the mice received intraperitoneal injections of Gala-SR or SR1078 (10 mg/kg) or the equivalent amount of DMSO utilized to dissolve these modulators every day for three consecutive weeks. Mice without any treatment and mice treated with DMSO but kept in L:D condition were also set for controls. By the end of the fourth week, a ligature-induced periodontitis model was established as previously described,[39] and samples at different time points were collected one week later for subsequent tests (Fig. 6b).
Alveolar bones were harvested from mice and fixed after removal of soft tissues. The bones were then scanned at a resolution of 9 μm using Micro-CT (SkyScan 1176, Bruker). Images were reconstructed and quantified using InstaRecon/NRecon Research Workplace software. Metrics such as bone volume/total volume, trabecular thickness, bone surface area/bone volume, trabecular number, trabecular separation, and buccal-lingual alveolar bone resorption were used to assess differences among the mice.
Male C57BL/6 mice,[40] 2 months old, were housed under disrupted conditions for 4 weeks. From the third week, they were intraperitoneally injected with Gala-SR, SR1078, or DMSO for 3 weeks. In the fifth week, general anesthesia was administered via intraperitoneal injection of pentobarbital sodium (40 mg/kg), and a ligature was placed around the cervix of the maxillary second molar to establish the murine periodontitis model. Collect gingival tissue and liver tissue every 6 h continuously for a duration of 48 h.

RORα = biological target: T1, RORα (Homo sapiens, UniProt P35398); assay: G6Pase and FGF21 mRNA in HEK293T cells after RORα knockdown by siRNA; type: cell-based; conditions: 5 μmol/L, 24 h
T1 construct: HEK293T cells co-transfected with a full-length RORα gene and a luciferase reporter gene; expressed in transfected cells; host or cells: HEK293T
T1 sequence (P35398 1-523): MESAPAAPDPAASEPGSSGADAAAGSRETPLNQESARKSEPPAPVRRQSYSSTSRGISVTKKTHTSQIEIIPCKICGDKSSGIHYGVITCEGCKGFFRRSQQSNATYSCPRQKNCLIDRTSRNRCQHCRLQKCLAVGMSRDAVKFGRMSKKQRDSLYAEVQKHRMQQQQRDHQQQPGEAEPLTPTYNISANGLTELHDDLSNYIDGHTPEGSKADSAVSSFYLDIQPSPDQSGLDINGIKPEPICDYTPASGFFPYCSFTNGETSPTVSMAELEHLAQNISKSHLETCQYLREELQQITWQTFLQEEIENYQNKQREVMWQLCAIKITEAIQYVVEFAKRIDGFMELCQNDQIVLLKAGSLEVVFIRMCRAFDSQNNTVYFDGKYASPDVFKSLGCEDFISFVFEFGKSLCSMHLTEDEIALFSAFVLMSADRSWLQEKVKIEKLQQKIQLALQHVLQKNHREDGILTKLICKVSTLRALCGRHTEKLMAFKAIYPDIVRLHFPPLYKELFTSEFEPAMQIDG
Method: RNA from liver, periodontal tissues and cell samples was prepared as previously described. Total RNA (1 ug) was synthesized into cDNA using […] (Vazyme). mRNA expression levels were normalized to GAPDH. Relative expression levels and enrichment contents were calculated using the comparative Ct Method. Primer information is detailed in Data file S1.

RORγ = biological target: T2, RORγ (Homo sapiens, UniProt P51449); assay: Luciferase reporter assay (G6Pase or FGF21 promoter) in HEK293T cells cotransfected with RORγ; type: cell-based; conditions: 5 μmol/L; for luminescence intensity of G6Pase and FGF21 reporter genes: compared to DMSO
T2 construct: expressed in transfected cells; host or cells: HEK293T
T2 sequence (P51449 1-518): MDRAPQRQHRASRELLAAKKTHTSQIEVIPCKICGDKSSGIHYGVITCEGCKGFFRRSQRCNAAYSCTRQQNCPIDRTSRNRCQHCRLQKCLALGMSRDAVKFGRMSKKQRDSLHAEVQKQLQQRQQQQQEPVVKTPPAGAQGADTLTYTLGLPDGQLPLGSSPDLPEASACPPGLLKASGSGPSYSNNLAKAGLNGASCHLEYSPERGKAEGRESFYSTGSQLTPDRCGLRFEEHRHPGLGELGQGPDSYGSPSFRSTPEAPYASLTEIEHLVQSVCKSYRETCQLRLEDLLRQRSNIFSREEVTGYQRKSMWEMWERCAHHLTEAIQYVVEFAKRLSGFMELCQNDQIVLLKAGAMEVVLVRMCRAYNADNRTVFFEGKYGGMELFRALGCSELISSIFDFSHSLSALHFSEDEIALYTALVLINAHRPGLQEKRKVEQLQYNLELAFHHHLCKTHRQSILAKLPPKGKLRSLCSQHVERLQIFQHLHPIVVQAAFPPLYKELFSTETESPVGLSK
From the text: HEK293T cells were transfected with Lipofectamine 8000 (ThermoFisher) strictly following the manufacturer’s instructions. Cotransfected HEK293T cells with RORα or RORγ plasmid and a reporter consisting of the G6Pase or FGF21 promoters upstream of a luciferase reporter gene. […] The Lumicycle instrument detects luminescence and records the numerical value.

[2] = Body weight changes in mice after IP administration; type: in vivo; conditions: 10 and 50 mg/kg, 7 days
Method: After U2OS cells were treated with various concentrations (0 ~ 50 μM) of SR1078,
Body weight changes (%) in […]

BMAL1 = BMAL1 immunofluorescence in synchronized U2OS cells; type: cell-based, human; conditions: 5 µmol/L
Method: U2OS cells were seeded on coverslips and treated with drugs for 24 h. After treatment, the cells were washed 3 times with PBS and fixed with 4% paraformaldehyde at room temperature for 15 min. The cells were then permeabilized with 0.1% Triton X-100 (diluted in PBS) and blocked with 5% BSA (diluted in PBS) at room temperature for 30 min. Primary antibodies were incubated overnight at 4 °C. The next day, the cells were washed 3 times with PBST and incubated with Cy3-conjugated Affinipure Goat Anti-Rabbit IgG(H + L) secondary antibody (1:200) at room temperature for one hour, with DAPI added to stain the nuclei. After washing 3 times with PBST, images were captured using a laser confocal microscope (Nikon A1-Si).

| Structure (SMILES) | periodontal tissue destruction (HE staining) [1] | rhythmic expression of circadian genes in periodontal tissue [1] | alveolar bone resorption (Micro-CT) [1] | IL-10-positive cell populations [1] | NF-κB pathway mediators Tnf-α and Il-6 [1] | TRAP-positive cell numbers (osteoclastic activity) [1] | activation of G6Pase and FGF21 transcription after RORα knockdown (RORα) | difference between Gala-SR and SR1078 in RORγ reporter luminescence (RORγ) | luminescence intensity of G6Pase and FGF21 reporter genes (RORγ) | systemic toxicity (body weight changes) [2] | expression of BMAL1 (immunofluorescence) (BMAL1) |
| --- | --- | --- | --- | --- | --- | --- | --- | --- | --- | --- | --- |
| O=C(Nc1ccc(C(OCO[C@@H]2O[C@H](CO)[C@H](O)[C@H](O)[C@H]2O)(C(F)(F)F)C(F)(F)F)cc1)c1ccc(C(F)(F)F)cc1 [Gala-SR] | attenuated periodontal tissue destruction | restored their rhythmic expression | significantly reduced alveolar bone resorption | markedly increased | significantly downregulated | marked reduction | markedly hampered the activation | no significant difference | significantly enhanced the luminescence intensity | reduced systematic toxicity | enhance the expression of BMAL1 |
| O=C(Nc1ccc(C(O)(C(F)(F)F)C(F)(F)F)cc1)c1ccc(C(F)(F)F)cc1 [SR1078, reference compound] | attenuated periodontal tissue destruction | restored their rhythmic expression | significantly reduced alveolar bone resorption | markedly increased | significantly downregulated | marked reduction | markedly hampered the activation |  | significantly enhanced the luminescence intensity | dose-dependent toxicity | enhance the expression of BMAL1 |
